Values joined by “and” are separate entries in the source; they are usually repeats but may differ in a detail not shown here. Equal values may be shown once.
Legend:
intracellular cyclic AMP = assay: Intracellular cyclic AMP by ELISA in 3T3-L1 adipocytes; format: cell-based, mouse; details: PF, vs control
Procedure: 3T3-L1 adipocytes were cultured in medium containing […] PF as test group and medium only as control. Cells were lysed by adding 0.1 N HCL, and intracellular cyclic AMP was measured by ELISA.

[1] = human, in vivo
Procedure: For Regular Injections: After sterilization of the surface area with 74% ethanol, topical application of lignocaine ointment or lidocaine gel was applied for 5 minutes to numb the skin where the injections are to take place.
For Booster Injection: The patient is prepared using 1 ml of 2% lidocaine to anaesthetize the site of entry of the large needle. This way, the procedure is almost painless. 3-5 minutes later, the booster injection is given slowly over a 3 minute period.
Patients are forewarned that bruising may occur due to the injections. Thus, some bruising in a patient may be expected. […] The bruising, usually disappears within 1 week. In addition, redness and tenderness at the injection site of the booster, is very common. Redness lasts for a couple of hours and the tenderness lasts for a couple of days. Bruising, is encountered more with the booster than the regular injections, but also disappears within a week or so. Another observation is fatigue as a result of treatment in some patients. […] In addition, a very slight rise in temperature, to about 37.1 or 37.2 for a few hours, was noted.

[2] = test system: Adiponectin receptor 1 (Adipor1); assay: Oligo GEArray microarray of obesity-related genes in 3T3-L1 adipocytes; format: cell-based, mouse; details: for Ratio of expression signals of Adipor1 compared to control: 1 umol/L PF, control = 1
Procedure: (§1) 3T3-L1 adipocytes were cultured in medium containing 1 umol/L PF as test group and medium only as control. Total RNA was extracted and Oligo GEArray was tested using Superarray OMM-17. The GEArray includes 111 obesity-related genes that are directly involved in the regulation of energy intake and expenditure. The genes included orexigenic peptides, hormones, and receptors, anorectic peptides, hormones, receptors, and central and peripheral signaling molecules involved in energy expenditure. The increase changes or decrease changes of more than 1.5 fold are regarded meaningful according to the diagnosis discipline, as described in the insert literature of a metabolic disease/obesity gene panel product purchased from Superarray Bioscience Corporation. (Frederick, Md.). […] In the graphs, the data above the upper line and the data below the lower line show a significant change of gene expression.

Adra2b = assay: as above; format: cell-based, mouse; details: for Ratio of expression signals of Adra2b compared to control: 3T3-L1 adipocytes, 1 umol/L PF, control = 1
Procedure: as §1

[3] = test system: Peroxisome proliferators activated receptor gamma (Pparg); assay: as above; format: cell-based, mouse; details: for Ratio of expression signals of Pparg compared to control: 1 umol/L PF, control = 1
Procedure: as §1

[4] = test system: β1-adrenergic receptor (Adrb1); assay: as above; format: cell-based, mouse; details: for Ratio of expression signals of Adrb1 compared to control: 3T3-L1 adipocytes, 1 umol/L PF, control = 1
Procedure: as §1

Adrb3 = assay: as above; format: cell-based, mouse; details: for Ratio of expression signals of Adrb3 compared to control: 1 umol/L PF, control = 1
Procedure: as §1

[5] = Blood indices before and after PF treatment in patients; format: in vivo, human
Procedure: Eight patients were treated with PF. The levels of three indices such as serum cholesterol, LDL Cholesterol, serum triglycerides in blood were tested before and after treatment.

C[C@@]12C[C@@]3(O)O[C@@H](O1)[C@]1(COC(=O)c4ccccc4)[C@H]3C[C@@]12O[C@@H]1O[C@H](CO)[C@@H](O)[C@H](O)[C@H]1O [PF, paeoniflorin]
intracellular cAMP (intracellular cyclic AMP; first day / 24 hours): significantly increased | intracellular cAMP (intracellular cyclic AMP; third day / 72 hours): significantly increased | bruising [1]: bruising was observed | diarrhea [1]: No diarrhea was observed | dizziness [1]: observed in a few patients | fatigue [1]: Two patients suffered from fatigue | redness and tenderness at the injection site [1]: very common | rise in temperature [1]: about 37.1 or 37.2 | stool [1]: softer stool was reported | time until bruising disappears [1]: ≤ 1 week | Ratio of expression signals of Adipor1 compared to control ([2]; 3 days): 0.68 | Ratio of expression signals of Adipor1 compared to control ([2]; 6 days): 1.21 | Ratio of expression signals of Adipor1 compared to control ([2]; 7 days): 1.86 | increase of Adipor1 expression ([2]; day 7 of exposure to PF): 1.86 fold | effect on expression of Adra2b (Adra2b; 3T3-L1 adipocytes exposed to PF, whole study): no effect on Adra2b | Ratio of expression signals of Adra2b compared to control (Adra2b; 3 days): 0.92 | Ratio of expression signals of Adra2b compared to control (Adra2b; 6 days): 1.44 | Ratio of expression signals of Adra2b compared to control (Adra2b; 7 days): 1.27 | Ratio of expression signals of Pparg compared to control ([3]; 3 days): 0.91 | Ratio of expression signals of Pparg compared to control ([3]; 6 days): 1.09 | Ratio of expression signals of Pparg compared to control ([3]; 7 days): 0.64 | reduction of the level of expression of Pparg ([3]; day 7 of exposure to PF): 1.54 fold | effect on expression of Adrb1 ([4]; 3T3-L1 adipocytes exposed to PF): significant increase | Ratio of expression signals of Adrb1 compared to control ([4]; 3 days): 3.39 | Ratio of expression signals of Adrb1 compared to control ([4]; 6 days): 0.8 | Ratio of expression signals of Adrb1 compared to control ([4]; 7 days): 0.58 | Ratio of expression signals of Adrb3 compared to control (Adrb3; 3 days): 1.56 | Ratio of expression signals of Adrb3 compared to control (Adrb3; 6 days): 3.18 | Ratio of expression signals of Adrb3 compared to control (Adrb3; 7 days): 5.65 | increase of Adrb3 expression (Adrb3; 7 days post exposure to PF): 5.65 fold | Serum Triglycerides Post-tx, Ave ([5]; average of eight patients, Pre-tx Ave 79.38, P 0.462, NR: 35-160): 72.50 mg/dL | LDL Cholesterol Post-tx, Ave ([5]; average of eight patients, Pre-tx Ave 122.81, P 0.452, NR: 60-150): 112.69 mg/dL | Serum Cholesterol Post-tx, Ave ([5]; average of eight patients, Pre-tx Ave 202.88, P 0.002, NR: 50-200): 172.75 mg/dL | Serum cholesterol, LDL Cholesterol, serum triglycerides in blood, change after treatment ([5]; eight patients, before vs after treatment): reduced after PF treatment | Serum Triglycerides Post-tx ([5]; individual cases 1-8, after PF treatment, NR: 35-160): 60 mg/dL and 59 mg/dL and 67 mg/dL and 71 mg/dL and 110 mg/dL and 55 mg/dL and 85 mg/dL and 73 mg/dL | Serum Cholesterol Post-tx ([5]; individual cases 1-8, after PF treatment, NR: 50-200): 135 mg/dL and 151 mg/dL and 222 mg/dL and 168 mg/dL and 237 mg/dL and 150 mg/dL and 148 mg/dL and 171 mg/dL | LDL Cholesterol Post-tx ([5]; individual cases 1-8, after PF treatment, NR: 60-150): 75 mg/dL and 92 mg/dL and 146 mg/dL and 108 mg/dL and 176.5 mg/dL and 98 mg/dL and 93 mg/dL and 113 mg/dL

Reference: patent US9901591B2, “Paeoniflorin preparations and uses thereof for fat reduction” (priority 2008, dated 2018)
